Here are results for 2 molecules from US4007196A, “4-Phenylpiperidine compounds” (priority 1973, dated 1977).

Where a name gives a salt, the structure may show the parent alone. Read-outs that look alike come from different tables or passages of the source.

Data set [1] is described as follows: Antidepressant daily dose. It counts as in vivo. The following applies: daily doses. On the procedure: In comparison, daily doses of 200-300 mg of imipramine are recommended.
The nature of data set [2]: Acute toxicity in mice. Particulars: mouse, in vivo.
Data set [3] relates to cardiovascular system. The data set can be described thus: Effect on the cardiovascular system (side-effects). It counts as in vivo. The following applies: comparison in words. The text has this: Known tricyclic thymoleptics affect the cardiovascular and peripheral autonomic nervous systems causing a wide range of side-effects. Cardiac disturbances and varying degrees of hypotension occur rather frequently and may be very serious.

The subject of data set [4] is 5HT-uptake. The data set can be described thus: Antagonism of p-chloroamphetamine (PCA)-induced 5HT-depletion from rat brain (5HT-uptake inhibitory activity). Format: in vivo. Particulars: for ED50: rat brain. The source says:
5HT-uptake inhibitory activity
Antagonism of p-chloroamphetamine (PCA)-induced 5HT-depletion from rat brain: […]

The conditions of data set [5]: daily doses; cited from earlier work.

Take `Fc1ccc(C2CCNCC2COc2ccc3c(c2)OCO3)cc1` (single isomer, unassigned) [GF 74, (-)-α-4-(4-Fluorophenyl)-3-(1,3-benzdioxolyl-(3))-oxymethyl piperidine maleate]: in data set [1], the “daily dose active as an antidepressant” value lay in the range of 15 to 25 mg. The LD50 – broadly, the dose expected to kill half of the subjects tested – in data set [2] (oral administration) came to 500 mg/kg; in data set [2] (sc, subcutaneous injection) it was 845 mg/kg. For the same molecule, the “effect on the cardiovascular system compared with tricyclic thymoleptics” value in data set [3] is “affect the cardiovascular system less than do the most common tricyclic thymoleptics”.

Regarding `CN(C)CCCN1c2ccccc2CCc2ccccc21` [Imipramine], the “ED50 p.o., antagonism of PCA-induced 5HT-depletion” value in data set [4] (po, 3 h) is on record as “+”. Moreover, the ED50 (usually the dose that gives a 50% effect, or the effect in half of the subjects) in data set [4] (po, p.o., test drugs administered 2 hours before PCA, read-out: ED50 p.o., antagonism of PCA-induced 5HT-depletion) is 44 mg/kg; in data set [4] (sc, test drugs administered s.c. simultaneously with PCA, read-out: ED50 s.c., antagonism of PCA-induced 5HT-depletion), 8 mg/kg. In data set [5], the recommended daily dose is 200 to 300 mg.
